Reference: the NIST ThermoML archive (doi:10.1021/acs.jced.6b00703)
Numbers after ± are expanded uncertainties.

Conditions: 101 kPa, Liquid, Drop weight

O=C1CCCCC1 [cyclohexanone] + O
interfacial tension (283.15 K): 4.78 ± 1 mN/m | interfacial tension (289.15 K): 4.43 ± 1 mN/m | interfacial tension (293.15 K): 4.87 ± 1 mN/m | interfacial tension (303.15 K): 5.08 ± 1 mN/m | interfacial tension (313.15 K): 5.05 ± 1 mN/m | interfacial tension (323.15 K): 4.71 ± 1 mN/m

Cc1ccccc1 [toluene] + O
interfacial tension (283.15 K): 36.1 ± 1.1 mN/m | interfacial tension (290.15 K): 35.8 ± 1.1 mN/m | interfacial tension (293.15 K): 36.3 ± 1.1 mN/m | interfacial tension (303.15 K): 36 ± 1.1 mN/m | interfacial tension (313.15 K): 35.3 ± 1.1 mN/m | interfacial tension (323.15 K): 34 ± 1 mN/m

OC1CCCCC1 [cyclohexanol] + O
interfacial tension (303.15 K): 4.17 ± 1 mN/m | interfacial tension (313.15 K): 4.15 ± 1 mN/m | interfacial tension (323.15 K): 3.97 ± 1 mN/m | interfacial tension (333.15 K): 3.95 ± 1 mN/m

CCCCCCCCO [octan-1-ol] + O
interfacial tension (289.15 K): 9.1 ± 1 mN/m

CC1CCCCC1 [methylcyclohexane] + O
interfacial tension (293.15 K): 51.4 ± 1.1 mN/m

CCOC(C)=O [ethyl acetate] + O
interfacial tension (283.15 K): 7.61 ± 1 mN/m | interfacial tension (289.15 K): 7.37 ± 1 mN/m | interfacial tension (293.15 K): 7.29 ± 1 mN/m | interfacial tension (303.15 K): 7.19 ± 1 mN/m | interfacial tension (313.15 K): 7.15 ± 1 mN/m | interfacial tension (323.15 K): 6.99 ± 1 mN/m

CCC(C)=O [butanone] + O
interfacial tension (292.15 K): 0.92 ± 1 mN/m

CCOCC [diethyl ether] + O
interfacial tension (293.15 K): 9.03 ± 1 mN/m

CCCCOC(C)=O [butyl ethanoate] + O
interfacial tension (283.15 K): 15.3 ± 1 mN/m | interfacial tension (289.15 K): 14.9 ± 1 mN/m | interfacial tension (290.15 K): 14.95 ± 1 mN/m | interfacial tension (293.15 K): 15.3 ± 1 mN/m | interfacial tension (303.15 K): 15.2 ± 1 mN/m | interfacial tension (313.15 K): 15.1 ± 1 mN/m | interfacial tension (323.15 K): 14.3 ± 1 mN/m
